Like-named read-outs stand apart in the source and are kept apart here.
Experiments:
[1] = low sustained systemic release; cited from earlier work
[2] = in vivo; cited from earlier work
[3] = test system: Mycobacterium tuberculosis bacteria in the monocytes; conditions: cited from earlier work
[4] = test system: Mycobacterium tuberculosis outside cells; conditions: cited from earlier work
[5] = cited from earlier work
[6] = cited from earlier work; remark: listed apart in the source
creatine kinase = conditions: compared with the placebo group; cited from earlier work
[7] = test system: Methicillin resistant staphylococcus aureus; assay: Treatment of MRSA infected patients; conditions: with broad spectrum antibiotics, insulin induced hypoglycemia and hyperbaric therapy
M. tuberculosis [8] = conditions: after 9 days; cited from earlier work
[9] = intravenous, doses from 5 to 50 grams or higher per day
tuberculosis cultures = conditions: compared to the untreated cultures after three days; cited from earlier work
endothelial dysfunction = conditions: 2,000 mg/day for two weeks; cited from earlier work
[10] = cited from earlier work; remark: listed apart in the source
M. tuberculosis [11] = conditions: flow cytometry; cited from earlier work
[12] = test system: plasma C reactive protein (CRP); conditions: smokers; cited from earlier work
[13] = test system: mycobacterium tuberculosis; assay: Breast cancer patient with pulmonary TB given high dose Vitamin C; type: in vivo, human
Excerpt: In the presence of above reductants, ferrous ions are produced by reduction of ferric ions (#2). One reductant known to drive the Fenton reaction is Vitamin C, also known as ascorbic acid. As a pro-oxidant, vitamin C can drive the Fenton reaction by reducing ferric ions to ferrous ions as shown in the above formula and FIG. 3. Most iron within the cell is bound within porphyrins and proteins, as ferric ions that are sparingly soluble and ferrous ions are very reactive as well as more soluble. To examine the role of iron concentration in vitamin C bactericidal activity, the concentrations of bound iron and reduced and oxidized free iron were measured in tuberculosis cultures treated with vitamin C. […] This increase in free iron levels was also the dose which peaked at day three. […] We treated a person has traveled to Southeast Asia and was diagnosed with left breast cancer. It was an early case with discrete lymph node metastasis. They have cough with blood tinged sputum, night sweats, and weight loss. […] By the time we made the TB diagnosis they were treated with high dose Vitamin C 10 to 25 grams in 500 ml normal saline every day for a total of 10 doses as an adjuvant therapy for cancer. They underwent local injection of anti-breast cancer chemotherapy therapeutic agents with insulin and local heat application with magnetic heat waves and hyperbaric therapy using soft air HBO chamber.
This person has traveled to Southeast Asia and was diagnosed with left breast cancer. It was an early case with discrete lymph node metastasis. They have cough with blood tinged sputum, night sweats, and weight loss. […] By the time we made the TB diagnosis they were treated with high dose Vitamin C 10 to 25 grams in 500 ml normal saline every day for a total of 10 doses as an adjuvant therapy for cancer. They underwent local injection of anti-breast cancer chemotherapy therapeutic agents with insulin and local heat application with magnetic heat waves and hyperbaric therapy using soft air HBO chamber.
After the lab came with mycobacterium tuberculosis, we wanted to see why the cough has gone with no sputum. […] We sent the sputum again, and came negative for mycobacterium tuberculosis after culture. This also made us to diagnose that the lesion in the lungs was not a metastatic breast cancer. The patient was treated with chemotherapy, local injection of breast mass and lymph nodes with high dose Vitamin C chemotherapy therapeutic agents. After completion of therapy, they were sent to surgery for the removal of the remaining lesion mass in the breast which had shrunk considerably, and axillary lymph node resection. They were seen 3 months after surgery. Their chest X ray was negative and so also sputum M. tuberculosis bacteria. They were free of cancer and tuberculosis.

tuberculosis bacteria = conditions: treated for 3 days, versus untreated sample; cited from earlier work
malaria = conditions: 3 grams (about 50 mg/kg) over a 3 to 5 day period; cited from earlier work
[14] = test system: radiation resistant breast cancer cells; conditions: cells pre-loaded with iron after incubation with holotransferrin, cited from earlier work
tuberculosis infection = conditions: cited from earlier work; for effect on tuberculosis infection: alone at 20 mg/kg per day; for TB lesion in the spleen compared with pyrazinamide alone / bacteria in the lungs compared with pyrazinamide alone: simultaneous administration with pyrazinamide
TB bacteria [15] = conditions: cited from earlier work
[16] = at atmospheric pressure; cited from earlier work
pathogenic organism's = conditions: cited from earlier work
TB proteasome = TB proteasome (Mycobacterium tuberculosis, UniProt P9WHT9); conditions: Lin et al 2009; cited from earlier work
TB proteasome, sequence (P9WHT9 58-291): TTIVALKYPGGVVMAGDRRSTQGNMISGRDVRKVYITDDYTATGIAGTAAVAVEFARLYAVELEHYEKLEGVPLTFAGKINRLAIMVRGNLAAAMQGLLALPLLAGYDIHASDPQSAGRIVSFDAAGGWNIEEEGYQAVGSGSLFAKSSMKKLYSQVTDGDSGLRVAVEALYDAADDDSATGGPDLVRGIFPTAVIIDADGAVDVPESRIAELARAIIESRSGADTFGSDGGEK
TB proteasome, sequence (P9WHU1 whole entry partner): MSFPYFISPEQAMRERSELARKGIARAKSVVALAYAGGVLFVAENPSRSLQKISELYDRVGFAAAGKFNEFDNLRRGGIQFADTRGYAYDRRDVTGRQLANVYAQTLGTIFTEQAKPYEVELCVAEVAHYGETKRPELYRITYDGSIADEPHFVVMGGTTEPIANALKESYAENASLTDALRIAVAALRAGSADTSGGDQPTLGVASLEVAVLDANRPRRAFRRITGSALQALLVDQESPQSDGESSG

TB bacteria [17] = conditions: cited from earlier work; remark: listed apart in the source
monkey and human cells = conditions: cited from earlier work
M. tuberculosis [18] = conditions: cited from earlier work
[19] = target: proprotein convertase subtilisin-kexin type 9 (PCSK9) (Homo sapiens, UniProt Q8NBP7); conditions: parenteral administration; cited from earlier work
[20] = 150 mg/kg per day, one month of treatment

Molecule: O=[N+]([O-])c1ccc(O)c([N+](=O)[O-])c1 [DNP, 2,4, dinitrophenol]
- increase of the therapeutic window [1]: more than 500 fold

Molecule: CC[C@@H](CO)NCCN[C@@H](CC)CO [Ethambutol]
- adverse effects stated in the text [2]: risk of developing optic neuritis

Molecule: CCc1cc(C(N)=S)ccn1 [Ethionamide, 2-ethylthioiso-nicotinamide]
- adverse effects stated in the text [2]: neurotoxicity and fatal hepatotoxicity

Molecule: O=C1[C@H](CC[C@H](O)c2ccc(F)cc2)[C@@H](c2ccc(O)cc2)N1c1ccc(F)cc1 [Ezetimibe, (3R,4S)-1-(4-fluorophenyl)-3-[(3S)-3-(4-fluorophenyl)-3-hydroxypropyl]-4-(4-hydroxyphenyl) zetidin-2-one]
- survival and proliferation of Mycobacterium tuberculosis in the monocytes [3]: significantly inhibiting the survival and proliferation
- killing of Mycobacterium tuberculosis outside cells [4]: directly killing

Molecule: CO[C@H]1/C=C/O[C@@]2(C)Oc3c(C)c(O)c4c(O)c(c(/C=N/N5CCN(C)CC5)c(O)c4c3C2=O)NC(=O)/C(C)=C\C=C\[C@H](C)[C@H](O)[C@@H](C)[C@@H](O)[C@@H](C)[C@H](OC(C)=O)[C@@H]1C [Rifampin, Rifampicin]
- Plasma Concentrations (mean±standard deviation) ([5]; IV 300 mg, 30 min): 8.9 ± 2.9 µg/mL
- Plasma Concentrations (mean±standard deviation) ([5]; IV 300 mg, 1 hr to 2 hr): 4.9 ± 1.3 µg/mL
- Plasma Concentrations (mean±standard deviation) ([5]; IV 300 mg, 4 hr): 2.5 ± 1.0 µg/mL
- Plasma Concentrations (mean±standard deviation) ([5]; IV 300 mg, 8 hr): 1 ± 0.6 µg/mL
- Plasma Concentrations (mean±standard deviation) ([5]; IV 300 mg, 12 hr): <0.4 µg/mL
- Plasma Concentrations (mean±standard deviation) ([5]; IV 600 mg, 30 min): 17.4 ± 5.1 µg/mL
- Plasma Concentrations (mean±standard deviation) ([5]; IV 600 mg, 1 hr to 2 hr): 11.7 ± 2.8 µg/mL
- Plasma Concentrations (mean±standard deviation) ([5]; IV 600 mg, 4 hr): 6.4 ± 1.7 µg/mL
- Plasma Concentrations (mean±standard deviation) ([5]; IV 600 mg, 8 hr): 3.5 ± 1.4 µg/mL
- Plasma Concentrations (mean±standard deviation) ([5]; IV 600 mg, 12 hr): 1.2 µg/mL
- concentration of the drug in the blood plasma ([6]; after increasing the dose): higher than expected
- adverse effects ([6]; increased dose versus standard dose): did not experience adverse effects
- ADVERSE EVENT/CONTRAINDICATION [2]: Hepatitis, GI reactions

Molecule: CC(=O)Nc1ccc(/C=N/NC(N)=S)cc1 [Thiacetazone]
- ADVERSE EVENT/CONTRAINDICATION [2]: Severe skin rash among HIV +ve (not recommended)

Molecule: O=C1O[C@H]([C@@H](O)CO)C(O)=C1O [Vitamin C, L-ascorbic acid]
- release of creatine kinase, an indicator of muscle damage (creatine kinase): inhibits the release of creatine kinase
- outcome of MRSA infection [7]: complete elimination of the infection
- DNA damage relative to the untreated culture or culture treated with Vitamin E (M. tuberculosis [8]): tenfold higher
- ROS induced DNA damage (M. tuberculosis [8]): 17-25%
- safety and tolerability [9]: safe and well-tolerated
- extracellular free iron concentrations (tuberculosis cultures): nearly four-fold higher
- endothelial dysfunction (endothelial dysfunction): reversed endothelial dysfunction
- peak plasma concentration ([10]; IV infusion up to 50 grams, cancer patients): 13.4 mM
- peak plasma concentrations ([10]; maximum tolerated dose of 3 g every 4 hours taken orally): 0.22 mM
- increase in total ROS (M. tuberculosis [11]): Up to threefold
- reduction in plasma C reactive protein (CRP) concentrations [12]: 24%
- outcome of tuberculosis ([13]; 10 to 25 grams IV every day, total of 10 doses): completely cured of tuberculosis
- cough ([13]; by second week): completely disappeared
- sputum for mycobacterium tuberculosis after culture ([13]; repeat sputum after treatment): negative
- chest X ray ([13]; third week): disappearance of the lesion
- intracellular levels of ferrous ions (tuberculosis bacteria): up to ten times higher

Molecule: C[C@@H]1CC[C@H]2[C@@H](C)C(=O)O[C@@H]3O[C@@]4(C)CC[C@@H]1[C@]32OO4 [artemisinin]
- resistance and toxicity (malaria): no resistance nor did toxicity
- cancer cell killing ([14]; 8 hours): 75%
- cancer cell killing ([14]; within 24 hours): ~100%

Molecule: CC(=O)Oc1ccccc1C(=O)O [aspirin, Acetylsalicylic acid]
- effect on tuberculosis infection (tuberculosis infection): little effect
- TB lesion in the spleen compared with pyrazinamide alone (tuberculosis infection): further decrease
- bacteria in the lungs compared with pyrazinamide alone (tuberculosis infection): statistically significant fewer bacteria

Molecule: N[C@@H](CS)C(=O)O [cysteine]
- intracellular levels of ferrous ions (tuberculosis bacteria): up to ten times higher

Molecule: CC(C)Cc1ccc(C(C)C(=O)O)cc1 (stereo not drawn) [ibuprofen]
- number of TB bacteria detected in the organs (TB bacteria [15]; mouse, in vivo): reduced the number of TB bacteria detected in the organs
- survival (TB bacteria [15]; versus mice not treated with ibuprofen): lived longer
- effect on tuberculosis infection (tuberculosis infection): little effect
- TB lesion in the spleen compared with pyrazinamide alone (tuberculosis infection): further decrease
- bacteria in the lungs compared with pyrazinamide alone (tuberculosis infection): lower unit counts

Molecule: O=[O+][O-] [ozone]
- time to break down from O3 to O2+O1 [16]: ≤ 20 min
- molecules of chlorine equal to one molecule of ozone (pathogenic organism's): 3000-10,000 molecules
- speed of killing pathogenic organisms (pathogenic organism's; compared with chlorine): 3500 times faster

Molecule: NC(=O)c1cnccn1 [pyrazinamide, Pyrazinamide]
- reduction in the lung compared with the control (tuberculosis infection; [20]): about 1.5 log10 cfu
- reduction in the spleen compared with the control (tuberculosis infection; [20]): ~2 log10 cfu
- ADVERSE EVENT/CONTRAINDICATION [2]: Hepatitis

Molecule: oxathiazol-2-one
- inhibition of the TB proteasome relative to the human proteasome (TB proteasome): about 1,000 times
- effect on TB bacteria (TB bacteria [17]): killed the TB bacteria
- harm to mammalian cells (monkey and human cells): did not appear to harm mammalian cells

B1: IFN-Y^− 1b: recombinant interferon gamma 1b, given nebulized (protein, UniProt P01579 24-161, looked up)
Interferon gamma: QDPYVKEAENLKKYFNAGHSDVADNGTLFLGILKNWKEESDRKIMQSQIVSFYFKLFKNFKDDQSIQKSVETIKEDMNVKFFNSNKKKRDDFEKLTNYSVTDLNVQRKAIHELIQVMAELSPAAKTGKRKRSQMLFRG
- IFN gamma signaling (M. tuberculosis [18]; 10 TB patients, one month of nebulized therapy): enhanced IFN-Y^− signaling
- clearance of M. tuberculosis bacteria from the sputum (M. tuberculosis [18]; nebulized, added to DOTS, randomized controlled trial): more rapid clearance
- sputum (M. tuberculosis [18]; open-label, nebulized, 5 patients with MDR-TB, after 1 month): clearing of the sputum

B2: evolocumab: human monoclonal antibody that inhibits PCSK9 (antibody, chains of the INN, looked up, V domains shown)
VH: EVQLVQSGAEVKKPGASVKVSCKASGYTLTSYGISWVRQAPGQGLEWMGWVSFYNGNTNYAQKLQGRGTMTTDPSTSTAYMELRSLRSDDTAVYYCARGYGMDVWGQGTTVTVSS
VL: ESALTQPASVSGSPGQSITISCTGTSSDVGGYNSVSWYQQHPGKAPKLMIYEVSNRPSGVSNRFSGSKSGNTASLTISGLQAEDEADYYCNSYTSTSMVFGGGTKLTVL
- reduction in LDL cholesterol levels [19]: 60%
